Test results taken from PubChem BioAssay AID328 (DTP/NCI, 2004).
“And” between values parts separate entries of the source, which are not always exact repeats. Equal entries are not always repeated. Inconclusive results and toxic doses are left out. How the source made its calls: active means survival T/C of 150% or more; inactive means T/C below 125% in these data.

System: BDF1 mice, P388 leukemia ip, median survival T/C
Assay: NCI In Vivo Anticancer Drug Screen. Data for tumor model P388 Leukemia (intraperitoneal) in B6D2F1 (BDF1) mice
Settings: endpoint: median survival time, higher = longer survival
How it was run: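 Reported as T/C, where T is the survival measurement in dosed animals and C the same measurement in vehicle controls.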

[1] = dose: 100.0 mg/kg/injection, schedule: Q04DX003 (ip), vehicle: saline
[2] = dose: 200.0 mg/kg/injection, schedule: Q04DX003 (ip), vehicle: saline
[3] = dose: 100.0 mg/kg/injection, schedule: Q01DX001 (ip), vehicle: saline with Tween-80
[4] = dose: 200.0 mg/kg/injection, schedule: Q01DX001 (ip), vehicle: saline with Tween-80
[5] = dose: 400.0 mg/kg/injection, schedule: Q01DX001 (ip), vehicle: saline with Tween-80
[6] = dose: 12.5 mg/kg/injection, schedule: Q01DX009 (ip), vehicle: saline with Tween-80
[7] = dose: 25.0 mg/kg/injection, schedule: Q01DX009 (ip), vehicle: saline with Tween-80
[8] = dose: 50.0 mg/kg/injection, schedule: Q01DX009 (ip), vehicle: saline with Tween-80
[9] = dose: 50.0 mg/kg/injection, schedule: Q04DX003 (ip), vehicle: Klucel (hydroxypropylcellulose) (HPC)
[10] = dose: 100.0 mg/kg/injection, schedule: Q04DX003 (ip), vehicle: Klucel (hydroxypropylcellulose) (HPC)
[11] = dose: 200.0 mg/kg/injection, schedule: Q04DX003 (ip), vehicle: Klucel (hydroxypropylcellulose) (HPC)
[12] = dose: 100.0 mg/kg/injection, schedule: Q04DX003 (ip), vehicle: saline with Tween-80
[13] = dose: 200.0 mg/kg/injection, schedule: Q04DX003 (ip), vehicle: saline with Tween-80
[14] = dose: 100.0 mg/kg/injection, schedule: Q01DX009 (ip), vehicle: saline with Tween-80

Measured: T/C

C=COCC(C)C (tested in a mixture with another compound)
inactive: dose: 0.19 mg/kg/injection, schedule: Q01DX009 (ip), vehicle: Klucel (hydroxypropylcellulose) (HPC) 105 % of control | dose: 0.39 mg/kg/injection, schedule: Q01DX009 (ip), vehicle: Klucel (hydroxypropylcellulose) (HPC) 120 % of control | dose: 0.78 mg/kg/injection, schedule: Q01DX009 (ip), vehicle: Klucel (hydroxypropylcellulose) (HPC) 120 % of control | dose: 0.78 mg/kg/injection, schedule: Q04DX003 (ip), vehicle: saline 104 % of control | dose: 1.56 mg/kg/injection, schedule: Q01DX009 (ip), vehicle: Klucel (hydroxypropylcellulose) (HPC) 100 % of control | dose: 1.56 mg/kg/injection, schedule: Q04DX003 (ip), vehicle: Klucel (hydroxypropylcellulose) (HPC) 109 % of control | dose: 1.56 mg/kg/injection, schedule: Q04DX003 (ip), vehicle: saline 95 % of control | dose: 3.12 mg/kg/injection, schedule: Q04DX003 (ip), vehicle: Klucel (hydroxypropylcellulose) (HPC) 104 % of control | dose: 3.12 mg/kg/injection, schedule: Q04DX003 (ip), vehicle: saline 104 % of control | dose: 4.6 mg/kg/injection, schedule: Q04DX003 (ip), vehicle: saline 104 % of control | dose: 6.25 mg/kg/injection, schedule: Q04DX003 (ip), vehicle: Klucel (hydroxypropylcellulose) (HPC) 113 % of control | dose: 7.0 mg/kg/injection, schedule: Q04DX003 (ip), vehicle: saline 109 % of control | dose: 7.5 mg/kg/injection, schedule: Q01DX001 (ip), vehicle: alcohol 91 % of control | dose: 8.75 mg/kg/injection, schedule: Q01DX009 (ip), vehicle: saline with Tween-80 110 % of control | dose: 10.0 mg/kg/injection, schedule: Q04DX003 (ip), vehicle: saline 104 % of control | dose: 15.0 mg/kg/injection, schedule: Q01DX001 (ip), vehicle: alcohol 104 % of control | dose: 17.5 mg/kg/injection, schedule: Q01DX009 (ip), vehicle: saline with Tween-80 95 % of control | dose: 30.0 mg/kg/injection, schedule: Q01DX001 (ip), vehicle: alcohol 104 % of control

CCN(CC)CC(C)OC(=O)c1ccc(N)cc1 (centres undefined)
inactive: dose: 33.0 mg/kg/injection, schedule: Q01DX009 (ip), vehicle: saline 92 % of control | dose: 50.0 mg/kg/injection, schedule: Q01DX009 (ip), vehicle: saline 100 % of control | dose: 75.0 mg/kg/injection, schedule: Q01DX009 (ip), vehicle: saline 104 % of control | dose: 100.0 mg/kg/injection, schedule: Q01DX009 (ip), vehicle: saline 100 % of control | [1] 95 % of control | [2] 86 % of control

NC(=O)c1nnc2cccc(Cl)n12
inactive: [3] 112 % of control | [4] 103 % of control | [5] 96 % of control

C=C1C(=O)O[C@@H]2[C@H]3O[C@]3(C)CCC=C(C)CC[C@@H]12
inactive: dose: 6.25 mg/kg/injection, schedule: Q01DX009 (ip), vehicle: alcohol 90 % of control | dose: 12.5 mg/kg/injection, schedule: Q01DX009 (ip), vehicle: alcohol 122 % of control | dose: 25.0 mg/kg/injection, schedule: Q01DX009 (ip), vehicle: alcohol 122 % of control | dose: 50.0 mg/kg/injection, schedule: Q01DX009 (ip), vehicle: alcohol 113 % of control

C=CC(=O)NCCCCC(N)C(=O)O (centres undefined)
inactive: [6] 108 % of control | [7] 106 % of control | [8] 113 % of control

COP(=O)(OC)OC=C(Cl)Cl
inactive: dose: 6.25 mg/kg/injection, schedule: Q01DX009 (ip), vehicle: saline with Tween-80 100 % of control | [6] 103 % of control | [7] 102 % of control

CC(=O)OC1CC(OC2C(O)CC(OC3C(O)CC(OC4CCC5(C)C(CCC6C5CCC5(C)C(C7=CC(=O)OC7)C(O)CC65O)C4)OC3C)OC2C)OC(C)C1OC1OC(CO)C(O)C(O)C1O (centres undefined)
inactive: dose: 12.5 mg/kg/injection, schedule: Q01DX010 (ip), vehicle: carboxymethylcellulose (CMC) 109 % of control | dose: 12.5 mg/kg/injection, schedule: Q04DX003 (ip), vehicle: Klucel (hydroxypropylcellulose) (HPC) 110 % of control | dose: 25.0 mg/kg/injection, schedule: Q01DX010 (ip), vehicle: carboxymethylcellulose (CMC) 95 % of control | dose: 25.0 mg/kg/injection, schedule: Q04DX003 (ip), vehicle: Klucel (hydroxypropylcellulose) (HPC) 120 % of control

O=C(O)C(CSC(c1ccccc1)c1ccccc1)N1C(=O)c2ccccc2C1=O (centres undefined)
inactive: [9] 100 % of control | [10] 104 % of control | [11] 95 % of control

CCCCc1ccc2nc(NC(=O)OC)[nH]c2c1
inactive: dose: 200.0 mg/kg/injection, schedule: Q04DX003 (ip), vehicle: other 93 % of control | [13] 96 % of control
active: dose: 100.0 mg/kg/injection, schedule: Q04DX003 (ip), vehicle: other 174 % of control | [12] 169 % of control | [11] 160 % of control

NC(=O)NOCC(N)C(=O)O (centres undefined)
inactive: [1] 104 % of control | [2] 100 % of control | dose: 400.0 mg/kg/injection, schedule: Q04DX003 (ip), vehicle: saline 104 % of control

Cc1cccc(NC(=O)CCc2ccc(N3C(N)=NC(N)=NC3(C)C)cc2)c1
inactive: dose: 58.0 mg/kg/injection, schedule: Q01DX009 (ip), vehicle: saline with Tween-80 111 % of control | dose: 88.0 mg/kg/injection, schedule: Q01DX009 (ip), vehicle: saline with Tween-80 119 % of control | dose: 132.0 mg/kg/injection, schedule: Q01DX009 (ip), vehicle: saline with Tween-80 119 % of control and 122 % of control

CC(=O)OCCC/C(=C/c1ccc(/C=C(\CCCOC(C)=O)[N+](=O)[O-])cc1)[N+](=O)[O-]
inactive: [9] 96 % of control | [10] 101 % of control | [11] 101 % of control

CCCN(CCC)CCSC(=S)NCCOC
inactive: [8] 100 % of control | [14] 113 % of control

CCOC(=S)SCC(=O)Nc1ccc(S(N)(=O)=O)cc1
inactive: dose: 15.0 mg/kg/injection, schedule: Q01DX009 (ip), vehicle: saline with Tween-80 95 % of control | dose: 30.0 mg/kg/injection, schedule: Q01DX009 (ip), vehicle: saline with Tween-80 104 % of control | dose: 60.0 mg/kg/injection, schedule: Q01DX009 (ip), vehicle: saline with Tween-80 113 % of control

Nc1cccc(/C=C/c2ccnc3ccccc23)c1
inactive: dose: 25.0 mg/kg/injection, schedule: Q01DX001 (ip), vehicle: saline with Tween-80 97 % of control | dose: 50.0 mg/kg/injection, schedule: Q01DX001 (ip), vehicle: saline with Tween-80 97 % of control | [3] 93 % of control and 110 % of control | [4] 119 % of control | [5] 102 % of control

CCCC(=O)c1c(C)cc(C)cc1C
inactive: [10] 110 % of control | [11] 110 % of control | dose: 400.0 mg/kg/injection, schedule: Q04DX003 (ip), vehicle: Klucel (hydroxypropylcellulose) (HPC) 120 % of control

C[N+](C)(CC(=O)Nc1ccc(Cl)c(C(F)(F)F)c1)Cc1ccc(Cl)cc1
inactive: dose: 25.0 mg/kg/injection, schedule: Q04DX003 (ip), vehicle: saline sonified 110 % of control | dose: 50.0 mg/kg/injection, schedule: Q04DX003 (ip), vehicle: saline sonified 110 % of control | dose: 100.0 mg/kg/injection, schedule: Q04DX003 (ip), vehicle: saline sonified 90 % of control

COc1ccccc1NC(=S)N(C)C
inactive: [8] 100 % of control | dose: 50.0 mg/kg/injection, schedule: Q04DX003 (ip), vehicle: saline with Tween-80 113 % of control | [14] 105 % of control | [12] 109 % of control | dose: 200.0 mg/kg/injection, schedule: Q01DX009 (ip), vehicle: saline with Tween-80 110 % of control | [13] 104 % of control

COc1ccccc1Oc1ccc(N=Cc2ccc(C)cc2)cc1
inactive: dose: 12.0 mg/kg/injection, schedule: Q01DX001 (ip), vehicle: Klucel (hydroxypropylcellulose) (HPC) 100 % of control | dose: 25.0 mg/kg/injection, schedule: Q01DX001 (ip), vehicle: Klucel (hydroxypropylcellulose) (HPC) 104 % of control | dose: 50.0 mg/kg/injection, schedule: Q01DX001 (ip), vehicle: Klucel (hydroxypropylcellulose) (HPC) 95 % of control | dose: 100.0 mg/kg/injection, schedule: Q01DX001 (ip), vehicle: Klucel (hydroxypropylcellulose) (HPC) 100 % of control
